This data set in a line: gradient 5% acetonitrile 3 min, to 50% in 2 min, to 85% in 15 min, held 3 min, 100 µL/min. The following applies: column: Zorbax Extend-C18 2.1 x 50 mm; eluents: water / acetonitrile, 0.1% formic acid. The method in brief: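 Mixtures of ~100 pure standards were chromatographed on a Zorbax Extend-C18 column (2.1 × 50 mm, 1.8 μm) at 100 μL/min using water and acetonitrile, each with 0.1% formic acid. Detection used a quadrupole time-of-flight mass spectrometer in positive and negative ionization mode, and data collection spanned 3 months. Retention time was obtained from adduct peaks picked computationally and each checked manually.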
The compound `O=C(NCCCc1ccccc1)c1ccc2c(c1)CCN2C(=O)C1CC1` gave an RP-LC retention time of 877 s.

As to `Cc1ccccc1NC(=O)C1CCCN(C(=O)c2nn(C)c3c2CN(C(=O)C(C)(C)C)CC3)C1` (stereo not given), the RP-LC retention time was found to be 802 s.

`O=C(Cn1ccc2sccc2c1=O)Nc1cccc(Cl)c1` had an RP-LC retention time of 800 s.

On to `COCCc1noc(C2Cc3ccccc3N2C(=O)NCc2ccc(OC)cc2)n1` (stereo not given), for which the RP-LC retention time was 904 s.

As for `CS(=O)(=O)N1CCCC1C(=O)Nc1ccccc1` (stereo not given), the RP-LC retention time is 690 s.

`COc1ccc(CN2CC3(CCN(S(=O)(=O)c4cccnc4)CC3)C2=O)cc1` displayed an RP-LC retention time of 750 s.

`COCCN1C(=O)c2ccccc2C(C(=O)NCc2ccccc2F)C12CCCCC2` (stereo not given) gave an RP-LC retention time of 877 s.

For the compound `CC(=O)Nc1nc(-c2ccc3c(c2)N(C)C(=O)CO3)cs1`, the RP-LC retention time came to 700 s.

`Cc1cc(OCC(=O)Nc2ccc(Cl)cc2F)nc(N2CCN(c3ccccc3)CC2)n1` gave an RP-LC retention time of 945 s.

Compound `Cc1ccc(NC(=O)C2CCN(S(C)(=O)=O)c3cc(C)ccc3O2)cc1` (stereo not given) returned an RP-LC retention time of 976 s.

As to `O=C1CC(c2nc(-c3ccccc3)no2)CN1c1ccc(F)cc1` (stereo not given), the RP-LC retention time is 940 s.

The compound `CCn1ccc2sc(C)c(C(=O)NC(C)c3ccc(F)cc3)c2c1=O` (stereo not given) displayed an RP-LC retention time of 808 s.

`Cc1nnc(-c2ccc3ccn(CC(=O)Nc4ccc(F)cc4)c3c2)o1` registered an RP-LC retention time of 795 s.

In turn, `COc1cccc(-c2nc(-c3ccc(NS(=O)(=O)c4cccs4)cc3)no2)c1OC` yielded an RP-LC retention time of 1040 s.

On to `O=C(CNC(=O)c1cc2ccccc2o1)Nc1cccc(C(F)(F)F)c1`, for which the RP-LC retention time stood at 928 s.

`O=C(Nc1ccc2c(c1)OCCO2)c1cn2c(n1)COCC2` gave an RP-LC retention time of 606 s.

`COCCN1C(=O)CCc2cc(NC(=O)COc3cccc(C)c3)ccc21` returned an RP-LC retention time of 799 s.

Regarding `O=C(NC1CCN(c2cc(-c3ccccc3)[nH]n2)C1)c1cccc(F)c1` (stereo not given), the RP-LC retention time is 717 s.

Consider `COc1cc(OC)cc(C(=O)N2CCC3(CC2)NC(=O)c2cc(C)ccc2N3C)c1`, for which the RP-LC retention time was 795 s.

Turning to `CCC(=O)Oc1ccc(N2C(=O)CCC2=O)cc1`, the RP-LC retention time was found to be 671 s.

For the compound `Cc1ccc(NC(=O)CN2C(=O)CCCc3cc(S(=O)(=O)N4CCC(C)CC4)ccc32)cc1`, the RP-LC retention time was 976 s.

For the compound `CC(=O)Nc1ccc(-n2cnc(C(=O)N3CCN(c4cccc(Cl)c4)CC3)c2)nc1`, the RP-LC retention time worked out at 749 s.

As to `Cc1cc(NC(=O)CSc2nnc(Cc3cccn3C)n2CCc2ccccc2)no1`, the RP-LC retention time is 762 s.

Regarding `CSc1cccc2sc(NCc3cccnc3)nc12`, the RP-LC retention time worked out at 590 s.

Regarding `O=C(c1ccc(Nc2c(-c3ccccc3)nc3cnccn23)cc1)N1CCOCC1`, the RP-LC retention time came out at 655 s.

The compound `Cc1cnc(SCc2ccc(Cl)cc2Cl)[nH]c1=O` gave an RP-LC retention time of 970 s.

`O=C(NC1CC1)[C@@H]1C[C@H](Oc2cccnc2)CN1C(=O)C1CC1`: the RP-LC retention time was 528 s.

Take `Clc1ccc(-c2nc3ncccn3c2Nc2ccccc2)cc1`: the RP-LC retention time was determined as 818 s.

`COc1cccc(N2CCN(C(=O)C3CCN(C(=O)C4Sc5ccccc5NC4=O)CC3)CC2)c1` (stereo not given) showed an RP-LC retention time of 709 s.

`O=C(Nc1ccccc1Br)N1CCCC1c1nc(-c2ccc(F)cc2F)no1` (stereo not given): the RP-LC retention time worked out at 1070 s.

The compound `CCCN(C)c1nccn2c(=O)n(CC(=O)Nc3cccc(Cl)c3)nc12` yielded an RP-LC retention time of 724 s.

For the compound `Cc1cc(S(=O)(=O)C(CNC(=O)c2cccs2)c2ccco2)ccc1F` (stereo not given), the RP-LC retention time was determined as 815 s.

For the compound `c1ccc(CN2CCC3(CCc4ccccc43)CC2)cc1`, the RP-LC retention time stood at 784 s.

In the case of `CC(C)(C)Cn1c(N)nc2ccc(-c3[nH]c(C(C)(C)C)nc3-c3ccc(F)cc3)nc21`, the RP-LC retention time amounted to 631 s.

Compound `CC(=O)Nc1ccc(C(=O)NC(C(=O)N2CCCc3ccccc32)c2ccccc2)cc1` (stereo not given) came in with an RP-LC retention time of 850 s.

In the case of `O=C(Nc1c(F)cccc1F)N1CCc2nc(-c3ccc(Cl)cc3)ncc2C1`, the RP-LC retention time worked out at 954 s.

`Cc1noc(-c2cccc(OC3CN(C(=O)NCCc4ccccc4)C3)c2)n1`: the RP-LC retention time came out at 879 s.

Take `O=C1NCCCn2cc(S(=O)(=O)Nc3ccccc3F)cc21`: the RP-LC retention time was determined as 633 s.

`Cc1ccc(NC(=O)N2CCC3(CC2)NC(=O)c2ccccc2O3)cc1F` had an RP-LC retention time of 799 s.

Turning to `CCOc1ccc(-n2ccn3cc(-c4cccc(OC)c4)nc3c2=O)cc1`, the RP-LC retention time came out at 847 s.

`CC1CCN(S(=O)(=O)c2cc(C(=O)N3CCN(c4ccc(Cl)cc4)CC3)n(C)c2)CC1` displayed an RP-LC retention time of 1100 s.

`COc1cccc(OC)c1CN1CC[C@@H]2CN(S(C)(=O)=O)[C@@H]2C1`: the RP-LC retention time is 594 s.

In the case of `CCOc1cc(-c2ccc(Cl)cc2)nc2ccc(NC(C)=O)cc12`, the RP-LC retention time amounted to 686 s.

Turning to `Cc1ccc(CNS(=O)(=O)c2cc(-c3[nH]ncc3C(=O)N3CCCC3)oc2C)o1`, the RP-LC retention time came out at 674 s.

Consider `Cc1nc2cc(-c3noc(-c4ccc(C#N)cc4)n3)ccc2o1`, for which the RP-LC retention time was determined as 1010 s.

`COc1ccc(-n2ncc3c(=O)n(Cc4nc(-c5ccc(OC)c(OC)c5)no4)cnc32)cc1`: the RP-LC retention time came to 910 s.

In turn, `CC1CCCN(CCCNC(=O)C2CCCN(c3ncnc4c3nc3n4CCCCC3)C2)C1` (stereo not given) had an RP-LC retention time of 585 s.

Consider `CCNC(=O)Nc1ccc2c(c1)CN(Cc1cn(C(C)C)c3ccc(OC)cc13)CCO2`, for which the RP-LC retention time stood at 726 s.

In turn, `CCCCC(=O)Nc1cc(C(=O)O)ccc1N(C)CC1COCCO1` (stereo not given) displayed an RP-LC retention time of 756 s.

In turn, `CN(C(=O)CSc1nnc(-c2ccc(Cl)cc2)o1)C1CCCCC1` showed an RP-LC retention time of 1090 s.

`COC(=O)c1ccc(C(=O)N(Cc2ccsc2)Cc2ccco2)cc1` displayed an RP-LC retention time of 832 s.

`CCOC(=O)N1CCN(CC(O)COc2ccc(Cl)cc2Cl)CC1` (stereo not given) returned an RP-LC retention time of 589 s.

As to `CC(C)n1c(CN2CCN(C)CC2)nc2cc(NC(=O)c3cccs3)ccc21`, the RP-LC retention time is 565 s.

With `Cc1csc(NC(=O)Cn2ccc3ccc(-c4nnc(C)o4)cc32)n1`, the RP-LC retention time stood at 716 s.

The compound `COc1ccc(CNC(=O)C2CCN(S(C)(=O)=O)c3ccccc3O2)cc1` (stereo not given) showed an RP-LC retention time of 810 s.

As for `CC(C)(C)C(=O)NC1CCN(C(=O)c2ccc(F)cc2)C1` (stereo not given), the RP-LC retention time is 688 s.

As for `Cc1ccc(Nc2c(-c3cccc(Br)c3)nc3cc(C)ccn23)cc1`, the RP-LC retention time came to 857 s.

On to `CCCCN1CC(=O)N(c2ccc(OC)cc2)[C@@H]2CS(=O)(=O)C[C@@H]21`, for which the RP-LC retention time came out at 719 s.

In the case of `CCN1C(=O)C(C)(C(=O)Nc2ccc(OC)cc2)Oc2cccnc21` (stereo not given), the RP-LC retention time was found to be 827 s.

`CCCc1nc(-c2c(C)cc(C)nc2NC(=O)c2ccccc2C(F)(F)F)no1` showed an RP-LC retention time of 951 s.
